In this assay the target is SstF F299A (SFN-sensing transcription factor, LysR family) (Xanthomonas campestris, UniProt Q8PAP2, F299A). The assay is described as follows: biochemical.

Consider `C[S+]([O-])CCCCN=C=S` (stereo not shown) [SFN, Sulforaphane], for which the dissociation constant (Kd) worked out at 143 µM.

In general, Kd refers to the constant that tells how readily two partners part at equilibrium. A higher Kd goes with lower affinity.

Source of the values: paper PMC10098062 (Molecular Plant Pathology, 2023).
